{"source": "patent US7666608B2", "about": "“Methods for determining drug responsiveness” (The Trustees of the University of Pennsylvania, priority 2002, dated 2010)", "key": {"[1]": {"system": "human SAA1 promoter", "assay": "SAA1 promoter luciferase reporter construct in HepG2 cells", "format": "cell-based", "details": "HepG2, pGL2-SAA1pt", "text": "The pGL2-SAA1pt construct was generated as follows. The proximal 3.1 kb of genomic sequence upstream of the human SAA1 transcription start site plus the full 37 bases of 5′UTR was amplified by polymerase chain reaction (PCR) from human genomic DNA (Roche Biomolecular) using forward and reverse primers, HSAA1PF (5′-GAATTCACGCGTTT-[…]-3′) (SEQ ID NO:10) and HSAAPR (5′-[…]-GCTGAGCTGCGGG-3′) (SEQ ID NO:11), that incorporate Mlu1 and Nco1 restriction sites, respectively. The product was digested with Mlu1 and Nco1 and directionally cloned into a pGL2 vector which had been modified to include an Nco1 site at the start of the luciferase coding sequence and contains the human SAA2 3′UTR (Longley et al. (1999) J. Immunol. 163:4537-45).\nConstructs pGL2-SAA1[0.7] and pGL2-SAA1[0.25] containing 704 and 233 bases of promoter sequence respectively, were generated from pGL2-SAA1pt by PCR using the forward primers 5′-[…]-CAGCCTTGACC-3′ (SEQ ID NO:12) and 5′-GAATTCACGCGTGGTCT-CCTGCCTG-3′ (SEQ ID NO:13) respectively, and the reverse primer HSAAPR.\nHuman HepG2 hepatoma cells (ATCC) were cultured in DMEM containing 10% FCS, gentamycin, sodium pyruvate and non-essential amino acids (Gibco BRL). Cells were seeded into 24 well plates 24 hours prior to transfection using FuGENE (Roche Biomolecular) as described in Jensen et al. (2000) J. Immunol. 164:5277-86. Cells transfected with SAA promoter luciferase reporter constructs and renilla control plasmid, were incubated for 16 to 20 hours before replacement of culture medium with fresh medium alone or fresh medium containing 10 ng/ml cytokines and/or dexamethasone and/or RU486 (Mifepristone). IL-1 was purchased from Peprotech. IL-6 was obtained from AstraZeneca. Dexamethasone and RU486 were obtained from Sigma.\n(§1) Cells were harvested at various times post-treatment, washed in PBS and resuspended in Passive Lysis Buffer (Promega, Madison, Wis.). […] Each treatment was carried out in triplicate and the mean ratio of luciferase to renilla activity and standard deviations were calculated. […]"}, "[2]": {"system": "human SAA2 promoter", "assay": "SAA2 promoter luciferase reporter construct in HepG2 cells", "format": "cell-based", "details": "HepG2, pGL2-SAA2pt, cytokines 10 ng/ml", "text": "The pGL2-SAA2pt construct, which contains 1.2 kb of the human SAA2 promoter upstream of a luciferase reporter was generated as follows. A 1196 bp of the promoter region and 22 bp of the first exon of the human acute phase SAA2 gene was amplified by PCR with the introduction of MluI and XhoI restriction sites at the 5′ and 3′ ends respectively (5′ oligonucleotide: 5′ […]-TACTTCCT-′3′ (SEQ ID NO: 8); 3′ oligonucleotide: 5′-[…]-[…]-3′ (SEQ ID NO:9). The PCR product was subsequently cloned into the multiple-cloning site of the pGL2-Basic vector (Promega, Madison, Wis., USA) which is located upstream of a luciferase reporter gene.\nConstructs pGL2-SAA2[0.7] and pGL2-SAA2[0.25] containing 700 and 239 bases of promoter sequence respectively, were generated from pGL2-SAA2pt by PCR using the forward primers 5′-[…]-3′ (SEQ ID NO:14) and 5′-[…]-3′ (SEQ ID NO:15) respectively, and the reverse primer HSAAPR.\nHuman HepG2 hepatoma cells (ATCC) were cultured in DMEM containing 10% FCS, gentamycin, sodium pyruvate and non-essential amino acids (Gibco BRL). […]\nas §1"}}}
{"compound": "CC#C[C@]1(O)CC[C@H]2[C@@H]3CCC4=CC(=O)CCC4=C3[C@@H](c3ccc(N(C)C)cc3)C[C@@]21C", "note": "[RU486, Mifepristone]", "values": [{"measurement": "effect on cytokine driven SAA1 promoter transcriptional activity", "setting": "[1]; 10 nM RU486 alone with IL-1 plus IL-6, 4 h", "result": "no measurable effect"}, {"measurement": "block of dexamethasone enhancement of cytokine induction of the SAA1 promoter", "setting": "[1]; 10 nM RU486 with 100 nM dexamethasone and IL-1 plus IL-6, 4 h", "result": "completely blocked"}]}
{"compound": "C[C@@H]1C[C@H]2[C@@H]3CCC4=CC(=O)C=C[C@]4(C)[C@@]3(F)[C@@H](O)C[C@]2(C)[C@@]1(O)C(=O)CO", "note": "[dexamethasone]", "values": [{"measurement": "effect on the SAA1 promoter", "setting": "[1]; dexamethasone alone (50 nM), 3, 6, 9, 24 h", "result": "no effect"}]}
{"compound": "IL-6: cytokine, obtained from AstraZeneca", "values": [{"measurement": "kinetic profile of cytokine driven SAA2 promoter readout", "setting": "[2]; 3, 6, 9, 24 h", "result": "highest at 3 hours and decreased through 24 hours"}, {"measurement": "induction of the SAA2 promoter", "setting": "[2]; 3-24 h", "result": "moderately induced"}]}
